Data from US10376520B2, “Methods for the treatment of cardiovascular disorders” (Galapagos NV, priority 2015, dated 2019).

Test system: RA patients
Experiment: [HDL] determination, Study 1 (RA patients, add-on to MTX)
Format: in vivo, human
Experimental: Double-blind, placebo-controlled add on study in subjects with moderately to severely active RA who have an inadequate response to methotrexate (MTX) (oral or parenteral).
595 subjects randomized to one of 6 dose regimens of Compound 1 (dosed as a [Compound 1:HCl:3H2O]) (3 dose levels administered either once or twice daily) or placebo on top of each subject's stable dose of MTX.
Compound 1 (dosed as a [Compound 1:HCl:3H2O]) is dosed for twelve weeks once daily (q.d.) (50 mg, 100 mg or 200 mg) or twice daily (b.i.d.) (25 mg, 50 mg or 100 mg); or placebo.
At Week 12, the subjects on placebo who have not achieved 20% improvement in swollen joint count (SJC66) and tender joint count (TJC68) are re-randomized automatically to receive Compound 1 (dosed as a [Compound 1:HCl:3H2O]) either at 100 mg q.d. or 50 mg b.i.d. doses in a blinded fashion; subjects on 50 mg q.d. who have not achieved 20% improvement in SJC66 and TJC68 will be assigned to 100 mg q.d. and subjects on 25 mg b.i.d. that have not achieved a 20% improvement in SJC66 and TJC68 will be assigned to 50 mg b.i.d. Subjects who switch treatment at week 12 are handled as if they discontinued at week 12 for the purpose of statistical analysis, whereas subjects in the other groups will maintain their randomized treatment until Week 24.
This assay relies on a homogeneous enzymatic colorimetric test. In the presence of magnesium ions, dextran sulfate selectively forms water-soluble complexes with LDL, VLDL and chylomicrons which are resistant to PEG-modified enzymes.
The cholesterol concentration of [HDL]-cholesterol is determined enzymatically by cholesterol esterase and cholesterol oxidase coupled with PEG to the amino groups (approx. 40%).
In the presence of peroxidase, the hydrogen peroxide generated reacts with 4-amino-antipyrine and Sodium N-(2-hydroxy-3-sulfopropyl)-3,5-dimethoxyaniline (HSDA) to form a purple-blue dye. The color intensity of this dye is directly proportional to the cholesterol concentration and is measured photometrically.
Human serum and plasma samples [HDL] determination was done on a Roche/Hitachi Cobas c 701/702 system which automatically calculate the analyte concentration of each sample. Samples containing precipitates are centrifuged before performing the assay.

[1] = continued 200 mg q.d. (N = 86), week 4
[2] = continued 200 mg q.d. (N = 86), week 8
[3] = continued 200 mg q.d. (N = 86), week 12
[4] = continued 200 mg q.d. (N = 86), week 16
[5] = continued 200 mg q.d. (N = 86), week 20
[6] = continued 200 mg q.d. (N = 86), week 24
[7] = from 25 mg b.i.d. to 50 mg b.i.d at 12 weeks (N = 17), week 1
[8] = from 25 mg b.i.d. to 50 mg b.i.d at 12 weeks (N = 17), week 2
[9] = from 25 mg b.i.d. to 50 mg b.i.d at 12 weeks (N = 17), week 4
[10] = from 25 mg b.i.d. to 50 mg b.i.d at 12 weeks (N = 17), week 8
[11] = from 25 mg b.i.d. to 50 mg b.i.d at 12 weeks (N = 17), week 12
[12] = from 25 mg b.i.d. to 50 mg b.i.d at 12 weeks (N = 17), week 24
[13] = from 50 mg q.d. to 100 mg q.d. at 12 weeks (N = 19), week 1
[14] = from 50 mg q.d. to 100 mg q.d. at 12 weeks (N = 19), week 2
[15] = from 50 mg q.d. to 100 mg q.d. at 12 weeks (N = 19), week 4
[16] = from 50 mg q.d. to 100 mg q.d. at 12 weeks (N = 19), week 8
[17] = from 50 mg q.d. to 100 mg q.d. at 12 weeks (N = 19), week 12
[18] = from 50 mg q.d. to 100 mg q.d. at 12 weeks (N = 19), week 16
[19] = from 50 mg q.d. to 100 mg q.d. at 12 weeks (N = 19), week 20
[20] = from 50 mg q.d. to 100 mg q.d. at 12 weeks (N = 19), week 24
[21] = placebo switched to 50 mg b.i.d at week 12 (N = 15), week 16
[22] = placebo switched to 50 mg b.i.d at week 12 (N = 15), week 20
[23] = placebo switched to 50 mg b.i.d at week 12 (N = 15), week 24

In the case of `O=C(Nc1nc2cccc(-c3ccc(CN4CCS(=O)(=O)CC4)cc3)n2n1)C1CC1` [Compound 1, cyclopropanecarboxylic acid {5-[4-(1,1-dioxo-thiomorpholin-4-ylmethyl)-phenyl]-[1,2,4]triazolo[1,5-a]pyridin-2yl}-amide], the “[HDL] Mean percentage CFB - 24 weeks results” value (shortened to “[HDL] Mean percentage CFB”) [1] is reported as 19.85%, the “[HDL] Median CFB - 24 weeks results” value [1] is reported as 0.25 mmol/L and the “[HDL] Mean CFB - 24 weeks results” value [2] is reported as 0.29 mmol/L. For the same compound, the “[HDL] Mean percentage CFB” value [2] was 21.85%, the “[HDL] Median CFB - 24 weeks results” value [2] was 0.30 mmol/L and the “[HDL] Mean CFB - 24 weeks results” value [3] was 0.27 mmol/L. For the same compound, the “[HDL] Mean percentage CFB” value [3] was 21.24%, the “[HDL] Median CFB - 24 weeks results” value [3] was 0.26 mmol/L and the “[HDL] Mean CFB - 24 weeks results” value [4] was 0.27 mmol/L. For the same compound, the “[HDL] Mean percentage CFB” value [4] was 21.14%, the “[HDL] Median CFB - 24 weeks results” value [4] was 0.23 mmol/L and the “[HDL] Mean CFB - 24 weeks results” value [5] was 0.30 mmol/L. For the same compound, the “[HDL] Mean percentage CFB” value [5] was 24.27%, the “[HDL] Median CFB - 24 weeks results” value [5] was 0.30 mmol/L and the “[HDL] Mean CFB - 24 weeks results” value [6] was 0.26 mmol/L. For the same compound, the “[HDL] Mean percentage CFB” value [6] was 20.78%, the “[HDL] Median CFB - 24 weeks results” value [6] was 0.25 mmol/L and the “[HDL] Mean CFB - 24 weeks results” value [7] was -0.05 mmol/L. For the same compound, the “[HDL] Mean percentage CFB” value [7] was −1.35%, the “[HDL] Median CFB - 24 weeks results” value [7] was -0.01 mmol/L and the “[HDL] Mean CFB - 24 weeks results” value [8] was 0.03 mmol/L. For the same compound, the “[HDL] Mean percentage CFB” value [8] was 4.08%, the “[HDL] Median CFB - 24 weeks results” value [8] was 0.05 mmol/L and the “[HDL] Mean CFB - 24 weeks results” value [9] was -0.01 mmol/L. For the same compound, the “[HDL] Mean percentage CFB” value [9] was 1.09%, the “[HDL] Median CFB - 24 weeks results” value [9] was 0.00 mmol/L and the “[HDL] Mean CFB - 24 weeks results” value [10] was -0.02 mmol/L. For the same compound, the “[HDL] Mean percentage CFB” value [10] was 0.59%, the “[HDL] Median CFB - 24 weeks results” value [10] was 0.05 mmol/L and the “[HDL] Mean CFB - 24 weeks results” value [11] was 0.04 mmol/L. The “[HDL] Mean percentage CFB” value [11] was 5.55%, the “[HDL] Median CFB - 24 weeks results” value [11] was 0.00 mmol/L and the “[HDL] Mean percentage CFB” value (from 25 mg b.i.d. to 50 mg b.i.d at 12 weeks (N = 17), week 16) was 7.37%. The “[HDL] Mean percentage CFB” value (from 25 mg b.i.d. to 50 mg b.i.d at 12 weeks (N = 17), week 20) was 1.50%, the “[HDL] Mean CFB - 24 weeks results” value [12] was 0.10 mmol/L and the “[HDL] Mean percentage CFB” value [12] was 8.10%. The “[HDL] Median CFB - 24 weeks results” value [12] was 0.17 mmol/L, the “[HDL] Mean CFB - 24 weeks results” value [13] was 0.02 mmol/L and the “[HDL] Mean percentage CFB” value [13] was 2.29%. For the same compound, the “[HDL] Median CFB - 24 weeks results” value [13] was 0.00 mmol/L, the “[HDL] Mean CFB - 24 weeks results” value [14] was 0.10 mmol/L and the “[HDL] Mean percentage CFB” value [14] was 6.63%. The “[HDL] Median CFB - 24 weeks results” value [14] was 0.07 mmol/L, the “[HDL] Mean CFB - 24 weeks results” value [15] was 0.07 mmol/L and the “[HDL] Mean percentage CFB” value [15] was 5.26%. The “[HDL] Median CFB - 24 weeks results” value [15] was 0.06 mmol/L, the “[HDL] Mean CFB - 24 weeks results” value [16] was 0.05 mmol/L and the “[HDL] Mean percentage CFB” value [16] was 5.77%. For the same compound, the “[HDL] Median CFB - 24 weeks results” value [16] was 0.09 mmol/L, the “[HDL] Mean CFB - 24 weeks results” value [17] was -0.02 mmol/L and the “[HDL] Mean percentage CFB” value [17] was 2.41%. The “[HDL] Median CFB - 24 weeks results” value [17] was -0.05 mmol/L, the “[HDL] Mean CFB - 24 weeks results” value [18] was 0.18 mmol/L and the “[HDL] Mean percentage CFB” value [18] was 11.43%. The “[HDL] Median CFB - 24 weeks results” value [18] was 0.15 mmol/L, the “[HDL] Mean CFB - 24 weeks results” value [19] was 0.13 mmol/L and the “[HDL] Mean percentage CFB” value [19] was 8.89%. For the same compound, the “[HDL] Median CFB - 24 weeks results” value [19] was 0.20 mmol/L, the “[HDL] Mean CFB - 24 weeks results” value [20] was 0.11 mmol/L and the “[HDL] Mean percentage CFB” value [20] was 8.29%. The “[HDL] Median CFB - 24 weeks results” value [20] was 0.11 mmol/L, the “[HDL] Mean CFB - 24 weeks results” value [21] was 0.08 mmol/L and the “[HDL] Mean percentage CFB” value [21] was 10.96%. The “[HDL] Median CFB - 24 weeks results” value [21] was 0.18 mmol/L, the “[HDL] Mean CFB - 24 weeks results” value [22] was 0.10 mmol/L and the “[HDL] Mean percentage CFB” value [22] was 12.63%. For the same compound, the “[HDL] Median CFB - 24 weeks results” value [22] was 0.21 mmol/L, the “[HDL] Mean CFB - 24 weeks results” value [23] was 0.10 mmol/L and the “[HDL] Mean percentage CFB” value [23] was 10.63%. For the same compound, the “[HDL] Median CFB - 24 weeks results” value [23] was 0.10 mmol/L, the “[HDL] Mean percentage CFB” value (placebo switched to 100 mg q.d. at week 12 (N = 15), week 16) was −0.14% and the “[HDL] Mean percentage CFB” value (placebo switched to 100 mg q.d. at week 12 (N = 15), week 20) was 0.95%. For the same compound, the “[HDL] Mean percentage CFB” value (placebo switched to 100 mg q.d. at week 12 (N = 15), week 24) was 0.14%.
